# Assay results from patent US6914045B2, “Glycopeptide antibiotics” (Wyeth Holdings Corporation, priority 2001, dated 2005).
# How the values were obtained:
# Assay in all cases: in vitro antibacterial evaluation, MIC by broth dilution
# Type in all cases: cell-based
# Enterococcus sp. = conditions: broth dilution, 18 hours at 35° C.
# Summary of the method: (§1)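 Inoculum 5×10^5 CFU/mL; concentrations 64 to 0.06 μg/mL; MIC defined as lowest inhibitory level. Conducted by broth dilution under NCCLS guidelines.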
# Staphylococcus sp. = conditions: broth dilution, 18 hours at 35° C.; for MIC Staphylococcus aureus (ATCC 29213): strain ATCC 29213; for MIC Staphylococcus aureus (GC 1131): strain GC 1131; for MIC Staphylococcus aureus (GC 3051): strain GC 3051; for MIC Staphylococcus aureus (GC 3053): strain GC 3053; for MIC Staphylococcus aureus (GC 4541): strain GC 4541; for MIC Staphylococcus aureus (GC 4542): strain GC 4542; for MIC Staphylococcus aureus-SMITH (GC 4543): strain GC 4543; for MIC Staphylococcus aureus (GC 4544): strain GC 4544; for MIC Staphylococcus aureus (GC 4545): strain GC 4545; for MIC Staphylococcus haemolyticus (GC 4546): strain GC 4546; for MIC Coagulase Negative Staphylococcus (GC 4547): strain GC 4547; for MIC Coagulase Negative Staphylococcus (GC 4548): strain GC 4548; for MIC Coagulase Negative Staphylococcus (GC 4549): strain GC 4549; for MIC Coagulase Negative Staphylococcus (GC 4551): strain GC 4551
# Summary of the method: as §1
# Streptococcus sp. = conditions: broth dilution, 18 hours at 35° C.
# Summary of the method: as §1
# Escherichia coli = conditions: 18 hours at 35° C.
smiles,measurement,setting,value
CCCCN1CC(C(O)C2NC(=O)C(C(O)C3CNC(=N)N3)NC(=O)C(Cc3ccc(OC4OC(CO)C(OC5OC6COC7(OC6C(O)C5O)C5CC6CC(C5)CC7C6)C(O)C4O)cc3)NC(=O)C(C(C)c3ccccc3)NC(=O)CNC(=O)C(CO)NC2=O)N(C2OC(CO)C(O)C(O)C2O)C1=N (centres unmarked) [Example 224],MIC Enterococcus avium (GC 4558),Enterococcus sp.,2 µg/mL
same,MIC Enterococcus faecalis (ATCC 29212),Enterococcus sp.,4 µg/mL
same,MIC Enterococcus faecalis (GC 2242),Enterococcus sp.,4 µg/mL
same,MIC Enterococcus faecalis (GC 2691),Enterococcus sp.,4 µg/mL
same,MIC Enterococcus faecalis (GC 3059),Enterococcus sp.,4 µg/mL
same,MIC Enterococcus faecalis (GC 4552),Enterococcus sp.,4 µg/mL
same,MIC Enterococcus faecalis (GC 4553),Enterococcus sp.,2 µg/mL
same,MIC Enterococcus faecalis (GC 4554),Enterococcus sp.,4 µg/mL
same,MIC Enterococcus faecalis (GC 6189),Enterococcus sp.,4 µg/mL
same,MIC Enterococcus faecium (GC 2243),Enterococcus sp.,2 µg/mL
same,MIC Enterococcus faecium (GC 4556),Enterococcus sp.,4 µg/mL
same,MIC Enterococcus faecium (GC 4557),Enterococcus sp.,0.5 µg/mL
same,MIC Enterococcus faecalis (ATCC 29212),"Enterococcus sp.; inoculum 5×10^5 CFU/mL, strain ATCC 29212",4 µg/mL
same,MIC Enterococcus faecalis (GC 2242),"Enterococcus sp.; inoculum 5×10^5 CFU/mL, strain GC 2242",4 µg/mL
same,MIC Enterococcus faecium (GC 2243),"Enterococcus sp.; inoculum 5×10^5 CFU/mL, strain GC 2243",2 µg/mL
same,MIC Enterococcus faecalis (GC 2691),"Enterococcus sp.; inoculum 5×10^5 CFU/mL, strain GC 2691",4 µg/mL
same,MIC Enterococcus faecalis (GC 3059),"Enterococcus sp.; inoculum 5×10^5 CFU/mL, strain GC 3059",4 µg/mL
same,MIC Enterococcus faecalis (GC 4552),"Enterococcus sp.; inoculum 5×10^5 CFU/mL, strain GC 4552",4 µg/mL
same,MIC Enterococcus faecalis (GC 4553),"Enterococcus sp.; inoculum 5×10^5 CFU/mL, strain GC 4553",2 µg/mL
same,MIC Enterococcus faecalis (GC 4554),"Enterococcus sp.; inoculum 5×10^5 CFU/mL, strain GC 4554",4 µg/mL
same,MIC Enterococcus faecium (GC 4556),"Enterococcus sp.; inoculum 5×10^5 CFU/mL, strain GC 4556",4 µg/mL
same,MIC Enterococcus faecium (GC 4557),"Enterococcus sp.; inoculum 5×10^5 CFU/mL, strain GC 4557",0.5 µg/mL
same,MIC Enterococcus avium (GC 4558),"Enterococcus sp.; inoculum 5×10^5 CFU/mL, strain GC 4558",2 µg/mL
same,MIC Enterococcus faecalis (GC 6189),"Enterococcus sp.; inoculum 5×10^5 CFU/mL, strain GC 6189",4 µg/mL
same,MIC Staphylococcus aureus (ATCC 29213),Staphylococcus sp.,2 µg/mL
same,MIC Staphylococcus aureus (GC 1131),Staphylococcus sp.,4 µg/mL
same,MIC Staphylococcus aureus (GC 3051),Staphylococcus sp.,2 µg/mL
same,MIC Staphylococcus aureus (GC 3053),Staphylococcus sp.,4 µg/mL
same,MIC Staphylococcus aureus (GC 4541),Staphylococcus sp.,1 µg/mL
same,MIC Staphylococcus aureus (GC 4542),Staphylococcus sp.,4 µg/mL
same,MIC Staphylococcus aureus-SMITH (GC 4543),Staphylococcus sp.,2 µg/mL
same,MIC Staphylococcus aureus (GC 4544),Staphylococcus sp.,4 µg/mL
same,MIC Staphylococcus aureus (GC 4545),Staphylococcus sp.,2 µg/mL
same,MIC Staphylococcus haemolyticus (GC 4546),Staphylococcus sp.,1 µg/mL
same,MIC Coagulase Negative Staphylococcus (GC 4547),Staphylococcus sp.,2 µg/mL
same,MIC Coagulase Negative Staphylococcus (GC 4548),Staphylococcus sp.,1 µg/mL
same,MIC Coagulase Negative Staphylococcus (GC 4549),Staphylococcus sp.,1 µg/mL
same,MIC Coagulase Negative Staphylococcus (GC 4551),Staphylococcus sp.,2 µg/mL
same,MIC Streptococcus agalactiae (GC 4564),Streptococcus sp.,<0.12 µg/mL
same,MIC Streptococcus pneumoniae (ATCC 6301),Streptococcus sp.,0.25 µg/mL
same,MIC Streptococcus pneumoniae (GC 1894),Streptococcus sp.,<0.12 µg/mL
same,MIC Streptococcus pneumoniae (GC 4565),Streptococcus sp.,0.25 µg/mL
same,MIC Streptococcus pyogenes (GC 4563),Streptococcus sp.,0.25 µg/mL
same,MIC Streptococcus pneumoniae (ATCC 6301),"Streptococcus sp.; inoculum 5×10^5 CFU/mL, strain ATCC 6301",0.25 µg/mL
same,MIC Streptococcus pneumoniae (GC 1894),"Streptococcus sp.; inoculum 5×10^5 CFU/mL, strain GC 1894",<0.12 µg/mL
same,MIC Streptococcus pyogenes (GC 4563),"Streptococcus sp.; inoculum 5×10^5 CFU/mL, strain GC 4563",0.25 µg/mL
same,MIC Streptococcus agalactiae (GC 4564),"Streptococcus sp.; inoculum 5×10^5 CFU/mL, strain GC 4564",<0.12 µg/mL
same,MIC Streptococcus pneumoniae (GC 4565),"Streptococcus sp.; inoculum 5×10^5 CFU/mL, strain GC 4565",0.25 µg/mL
same,MIC Escherichia coli (ATCC 25922),Escherichia coli,128 µg/mL
same,MIC Escherichia coli (GC 4559),Escherichia coli,64 µg/mL
same,MIC Escherichia coli (GC 4560),Escherichia coli,2 µg/mL
"CC(c1ccccc1)C1NC(=O)CNC(=O)C(CO)NC(=O)C(C(O)C2CNC(=N)N2C2OC(CO)C(O)C(O)C2O)NC(=O)C(C(O)C2CNC(=N)N2)NC(=O)C(Cc2ccc3oc(SCc4ccccc4)nc3c2)NC1=O (stereo not drawn) [Example 45, Cyclo[3-[2-(benzylthio)-1,3-benzoxazol-5-yl]alanyl-3-(2-iminoimidazolidin-4-yl)seryl-3-(3-hexopyranosyl-2-iminoimidazolidin-4-yl)serylserylglycyl-β-methylphenylalanyl]]",MIC Enterococcus faecalis (ATCC 29212),Enterococcus sp.; strain ATCC 29212,32 µg/mL
same,MIC Enterococcus faecalis (GC 2242),Enterococcus sp.; strain GC 2242,16 µg/mL
same,MIC Enterococcus faecium (GC 2243),Enterococcus sp.; strain GC 2243,16 µg/mL
same,MIC Enterococcus faecalis (GC 2691),Enterococcus sp.; strain GC 2691,32 µg/mL
same,MIC Enterococcus faecalis (GC 3059),Enterococcus sp.; strain GC 3059,32 µg/mL
same,MIC Enterococcus faecalis (GC 4552),Enterococcus sp.; strain GC 4552,16 µg/mL
same,MIC Enterococcus faecalis (GC 4553),Enterococcus sp.; strain GC 4553,16 µg/mL
same,MIC Enterococcus faecalis (GC 4554),Enterococcus sp.; strain GC 4554,16 µg/mL
same,MIC Enterococcus faecium (GC 4556),Enterococcus sp.; strain GC 4556,32 µg/mL
same,MIC Enterococcus faecium (GC 4557),Enterococcus sp.; strain GC 4557,4 µg/mL
same,MIC Enterococcus avium (GC 4558),Enterococcus sp.; strain GC 4558,8 µg/mL
same,MIC Enterococcus faecalis (GC 6189),Enterococcus sp.; strain GC 6189,16 µg/mL
same,MIC Staphylococcus aureus (ATCC 29213),Staphylococcus sp.,8 µg/mL
same,MIC Staphylococcus aureus (GC 1131),Staphylococcus sp.,8 µg/mL
same,MIC Staphylococcus aureus (GC 3051),Staphylococcus sp.,8 µg/mL
same,MIC Staphylococcus aureus (GC 3053),Staphylococcus sp.,8 µg/mL
same,MIC Staphylococcus aureus (GC 4541),Staphylococcus sp.,16 µg/mL
same,MIC Staphylococcus aureus (GC 4542),Staphylococcus sp.,8 µg/mL
same,MIC Staphylococcus aureus-SMITH (GC 4543),Staphylococcus sp.,8 µg/mL
same,MIC Staphylococcus aureus (GC 4544),Staphylococcus sp.,8 µg/mL
same,MIC Staphylococcus aureus (GC 4545),Staphylococcus sp.,8 µg/mL
same,MIC Staphylococcus haemolyticus (GC 4546),Staphylococcus sp.,4 µg/mL
same,MIC Coagulase Negative Staphylococcus (GC 4547),Staphylococcus sp.,4 µg/mL
same,MIC Coagulase Negative Staphylococcus (GC 4548),Staphylococcus sp.,8 µg/mL
same,MIC Coagulase Negative Staphylococcus (GC 4549),Staphylococcus sp.,4 µg/mL
same,MIC Coagulase Negative Staphylococcus (GC 4551),Staphylococcus sp.,8 µg/mL
same,MIC Coagulase Negative Staphylococcus (GC 6257),Staphylococcus sp.; strain GC 6257,4 µg/mL
same,MIC Streptococcus pneumoniae (ATCC 6301),Streptococcus sp.; strain ATCC 6301,16 µg/mL
same,MIC Streptococcus pneumoniae (GC 1894),Streptococcus sp.; strain GC 1894,16 µg/mL
same,MIC Streptococcus pyogenes (GC 4563),Streptococcus sp.; strain GC 4563,4 µg/mL
same,MIC Streptococcus agalactiae (GC 4564),Streptococcus sp.; strain GC 4564,16 µg/mL
same,MIC Streptococcus pneumoniae (GC 4565),Streptococcus sp.; strain GC 4565,32 µg/mL
same,MIC Escherichia coli (ATCC 25922),"Escherichia coli; strain ATCC 25922, broth dilution",16 µg/mL
same,MIC Escherichia coli (GC 4559),"Escherichia coli; strain GC 4559, broth dilution",16 µg/mL
same,MIC Escherichia coli (GC 4560),"Escherichia coli; strain GC 4560, broth dilution",4 µg/mL
